# Data as given in PubChem BioAssay (NCI).
#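 Five concentrations, 48 hours, 96-well plates. The concentration for 50% growth inhibition is given as GI50. Definition used: TGI = concentration required for complete inhibition of growth.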
# What was measured:
# Experiment in all cases: growth of human tumour cells (NCI), 48 h
# [1] = system: NCI-H226 lung
# [2] = system: NCI-H23 lung
# [3] = system: NCI-H460 lung
# [4] = system: NCI-H522 lung
# [5] = system: OVCAR-3 ovarian
# [6] = system: OVCAR-4 ovarian
# [7] = system: OVCAR-5 ovarian
# [8] = system: OVCAR-8 ovarian
# [9] = system: PC-3 prostate
# [10] = system: RPMI-8226 leukemia
# [11] = system: RXF 393 renal
# [12] = system: SF-268 CNS
# [13] = system: SF-295 CNS
# [14] = system: SF-539 CNS
# [15] = system: SK-MEL-2 melanoma
# [16] = system: SK-MEL-28 melanoma
# [17] = system: SK-MEL-5 melanoma
# [18] = system: SK-OV-3 ovarian
# [19] = system: SN12C renal
# [20] = system: SNB-19 CNS
# [21] = system: SNB-75 CNS
# [22] = system: SR leukemia
# [23] = system: SW-620 colon
# [24] = system: T-47D breast
# [25] = system: TK-10 renal
# [26] = system: U251 CNS
# [27] = system: UACC-257 melanoma
# [28] = system: UACC-62 melanoma
# [29] = system: UO-31 renal
compound,measurement,setting,value
O=C(c1ccc(Cl)cc1)C1[C@H](c2ccc(Br)cc2)[C@@H](c2ccccc2)NC12C(=O)Nc1ccc(Cl)cc12 (stereo partly drawn),GI50,[1],5.3 µM
same,TGI,[1],12.2 µM
same,GI50,[2],3.98 µM
same,TGI,[2],11.7 µM
same,GI50,[3],1.66 µM
same,TGI,[3],7.49 µM
same,GI50,[4],4.22 µM
same,TGI,[4],11.8 µM
same,GI50,[5],4.02 µM
same,TGI,[5],11 µM
same,GI50,[6],3.65 µM
same,TGI,[6],11.9 µM
same,GI50,[7],5.95 µM
same,TGI,[7],12.6 µM
same,GI50,[8],5.46 µM
same,TGI,[8],12.8 µM
same,GI50,[9],2.03 µM
same,TGI,[9],9.08 µM
same,GI50,[10],1.99 µM
same,TGI,[10],13.2 µM
same,GI50,[11],2.09 µM
same,TGI,[11],9.12 µM
same,GI50,[12],2.88 µM
same,TGI,[12],11.2 µM
same,GI50,[13],2.75 µM
same,TGI,[13],10.1 µM
same,GI50,[14],6.41 µM
same,TGI,[14],13.1 µM
same,GI50,[15],5.51 µM
same,TGI,[15],12.1 µM
same,GI50,[16],5.78 µM
same,TGI,[16],12.2 µM
same,GI50,[17],7.68 µM
same,TGI,[17],15 µM
same,GI50,[18],7.36 µM
same,TGI,[18],17.3 µM
same,GI50,[19],1.88 µM
same,TGI,[19],7.17 µM
same,GI50,[20],5.97 µM
same,TGI,[20],13.2 µM
same,GI50,[21],2.45 µM
same,TGI,[21],11.6 µM
same,GI50,[22],1.63 µM
same,TGI,[22],9.55 µM
same,GI50,[23],3.35 µM
same,TGI,[23],10.7 µM
same,GI50,[24],2.13 µM
same,TGI,[24],9.66 µM
same,GI50,[25],5.49 µM
same,TGI,[25],12.2 µM
same,GI50,[26],3.58 µM
same,TGI,[26],10.7 µM
same,GI50,[27],6.03 µM
same,TGI,[27],12.8 µM
same,GI50,[28],2.21 µM
same,TGI,[28],9.1 µM
same,GI50,[29],1.87 µM
same,TGI,[29],8.68 µM
